Among the data in patent US20030166694A1, “Glycinamides” (priority 2000, published 2003) are IC50 values, retold here.

What is called IC50 is the point on the concentration scale where inhibition reaches its midpoint. Lower therefore signals higher potency.

Molecules are shown by their SMILES.

The target of one assay is factor Xa, human (Homo sapiens, UniProt P00742). In words: Inhibition of factor Xa (table title: Affinity to receptors). Format: biochemical. The source says: The inhibition of factor Xa by the compounds according to the invention and the measurement of the anticoagulant and antithrombotic activity can be determined by conventional in-vitro or in-vivo methods. A suitable method is described, for example, by J. Hauptmann et al. in Thrombosis and Haemostasis 1990, 63, 220-223.
The inhibition of factor Xa can be measured, for example, by the method of T. Hara et al. in Thromb. Haemostas. 1994, 71, 314-319.

The target of the next assay is TF/VIIa (Homo sapiens, UniProt P08709). In words: Inhibition of TF/VIIa (table title: Affinity to receptors). Format: biochemical. The source says: The inhibition of factor VIIa by the compounds according to the invention and the measurement of the anticoagulant and antithrombotic activity can be determined by conventional in-vitro or in-vivo methods. A conventional method for the measurement of the inhibition of factor VIIa is described, for example, by H. F. Ronning et al. in Thrombosis Research 1996, 84, 73-81.
Chain of TF/VIIa (P08709 213-466 limits assumed): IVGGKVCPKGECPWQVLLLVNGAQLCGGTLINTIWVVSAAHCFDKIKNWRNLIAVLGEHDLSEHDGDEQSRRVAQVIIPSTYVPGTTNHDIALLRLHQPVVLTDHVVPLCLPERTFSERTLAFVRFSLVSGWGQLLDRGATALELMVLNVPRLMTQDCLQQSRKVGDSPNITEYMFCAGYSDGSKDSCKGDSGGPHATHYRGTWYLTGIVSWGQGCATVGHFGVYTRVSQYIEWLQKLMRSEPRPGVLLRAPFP
Chain of TF/VIIa (P08709 61-212 limits assumed): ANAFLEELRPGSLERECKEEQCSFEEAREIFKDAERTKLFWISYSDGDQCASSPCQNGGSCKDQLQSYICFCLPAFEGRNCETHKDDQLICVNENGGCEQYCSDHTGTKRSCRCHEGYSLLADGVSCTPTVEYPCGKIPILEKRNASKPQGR
Chain of TF/VIIa (P13726 33-295 partner): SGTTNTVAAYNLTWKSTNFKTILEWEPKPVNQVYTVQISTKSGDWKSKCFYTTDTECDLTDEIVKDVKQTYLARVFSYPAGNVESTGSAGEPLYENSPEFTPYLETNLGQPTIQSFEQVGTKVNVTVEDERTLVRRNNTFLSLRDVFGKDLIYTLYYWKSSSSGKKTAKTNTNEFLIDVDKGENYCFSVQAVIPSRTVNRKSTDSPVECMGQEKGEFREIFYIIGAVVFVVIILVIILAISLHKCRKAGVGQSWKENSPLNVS

Chain of factor Xa, human (P00742 235-488 limits assumed): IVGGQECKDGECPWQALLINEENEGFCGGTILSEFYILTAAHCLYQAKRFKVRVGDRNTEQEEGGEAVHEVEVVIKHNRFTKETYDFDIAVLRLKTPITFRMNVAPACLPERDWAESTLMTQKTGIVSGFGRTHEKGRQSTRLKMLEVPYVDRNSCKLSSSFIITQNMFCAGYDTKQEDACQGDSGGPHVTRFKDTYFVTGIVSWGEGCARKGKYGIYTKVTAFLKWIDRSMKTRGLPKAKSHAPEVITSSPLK
Chain of factor Xa, human (P00742 41-179 limits assumed): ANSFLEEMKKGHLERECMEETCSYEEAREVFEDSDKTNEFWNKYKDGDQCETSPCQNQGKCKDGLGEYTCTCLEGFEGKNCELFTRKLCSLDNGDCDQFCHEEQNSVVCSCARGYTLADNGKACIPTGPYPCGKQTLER

Take `N=C(N)c1cccc(N(CC(=O)Nc2ccc(-c3ccccc3S(N)(=O)=O)cc2)Cc2ccccc2)c1` [N-(2′-aminosulfonylbiphenyl-4-yl)-2-[(3-amidinophenyl)-N-benzylamino]acetamide]: the IC50 against factor Xa, human turned out to be 81 nM; at TF/VIIa it was 15 nM.

On to `CC(C)CN(CC(=O)Nc1ccc(-c2ccccc2S(N)(=O)=O)cc1)c1cccc(C(=N)N)c1` [N-(2′-aminosulfonylbiphenyl-4-yl)-2-[(3-amidinophenyl)-N-isobutylamino]acetamide], for which the IC50 on factor Xa, human was 480 nM; against TF/VIIa, 370 nM.

Consider `CN(CC(=O)Nc1ccc(-c2ccccc2S(N)(=O)=O)cc1)c1cccc(C(=N)N)c1` [N-(2′-aminosulfonylbiphenyl-4-yl)-2-[(3-amidinophenyl)-N-methylamino]acetamide], for which the IC50 at factor Xa, human stood at 10 nM; against TF/VIIa, 25 nM.

Regarding `CCCN(CC(=O)Nc1ccc(-c2ccccc2S(N)(=O)=O)cc1)c1cccc(C(=N)N)c1` [N-(2′-aminosulfonylbiphenyl-4-yl)-2-[(3-amidinophenyl)-N-propylamino]acetamide], the IC50 on factor Xa, human is 130 nM; at TF/VIIa, 44 nM.

As for `CCCN(CC(=O)Nc1ccc(-c2ccccc2S(C)(=O)=O)cc1)c1cccc(C(=N)N)c1` [N-(2′-methylsulfonylbiphenyl-4-yl)-2-[(3-amidinophenyl)-N-propylamino]acetamide], the IC50 came to 120 nM at factor Xa, human and 31 nM against TF/VIIa.
